Reference: ChEMBL document CHEMBL1128055, “Selective cytotoxic cyclolignans” (Bioorg Med Chem Lett, 1995)

Tests used:
[1] = test system: CV-1; test: Antineoplastic activity against CV-1 (monkey kidney fibroblast) cell line.; assay type: functional, cell-based, Cercopithecidae; details: Chlorocebus aethiops
[2] = test system: HT-29; test: Antineoplastic activity against HT-29 (human colon carcinoma) cell line.; assay type: functional, cell-based
[3] = test system: SK-MEL-28; test: Antineoplastic activity against MEL-28 human melanoma carcinoma cell cultures; assay type: functional, cell-based
[4] = Selectivity index was evaluated by antineoplastic activity against HT-29 cells and compared with cytotoxicity against normal cells; assay type: functional
[5] = test system: P388; test: Antineoplastic activity against P-388 (murine leukemia) cell line.; assay type: functional, cell-based; details: Mus musculus
[6] = test system: A549; test: Antineoplastic activity against A-549 (human lung carcinoma) cell line.; assay type: functional, cell-based

COC(=O)[C@@H]1C(/C=N/Nc2ccccc2)=Cc2cc3c(cc2[C@H]1c1cc(OC)c(OC)c(OC)c1)OCO3
IC50 [1]: 1940 nM | IC50 [2]: 39 nM | IC50 [3]: 4840 nM | Selectivity index [4]: 50 | IC50 [5]: 1940 nM | IC50 [6]: 970 nM

COC(=O)[C@@H]1[C@H](COC(C)=O)Cc2cc3c(cc2[C@H]1c1cc(OC)c(OC)c(OC)c1)OCO3
IC50 [1]: 210 nM | IC50 [2]: 210 nM | IC50 [3]: 210 nM | IC50 [5]: 210 nM | IC50 [6]: 210 nM

COC(=O)[C@@H]1[C@H](CO)Cc2cc3c(cc2[C@H]1c1cc(OC)c(OC)c(OC)c1)OCO3
IC50 [1]: 58 nM | IC50 [2]: 120 nM | IC50 [3]: 58 nM | IC50 [5]: 58 nM | IC50 [6]: 58 nM

COC(=O)[C@H]1[C@H](c2cc(OC)c(OC)c(OC)c2)c2cc3c(cc2[C@H](OC(C)=O)[C@H]1COC(C)=O)OCO3
IC50 [1]: 1100 nM | IC50 [2]: 1100 nM | IC50 [5]: 1100 nM | IC50 [6]: 1100 nM

COc1cc([C@@H]2c3cc4c(cc3C(=O)[C@H]3COC(=O)[C@@H]23)OCO4)cc(OC)c1OC [PICROPODOPHYLLONE]
IC50 [1]: 48000 nM | IC50 [2]: 12000 nM | IC50 [5]: 12000 nM | IC50 [6]: 12000 nM

COC(=O)[C@@H]1C(/C=N/N)=Cc2cc3c(cc2[C@H]1c1cc(OC)c(OC)c(OC)c1)OCO3
IC50 [1]: 2270 nM | IC50 [2]: 570 nM | IC50 [3]: 1140 nM | IC50 [5]: 570 nM | IC50 [6]: 570 nM

COC(=O)[C@@H]1C(/C=N/O)=Cc2cc3c(cc2[C@H]1c1cc(OC)c(OC)c(OC)c1)OCO3
IC50 [1]: 2270 nM | IC50 [2]: 2270 nM | IC50 [3]: 2270 nM | IC50 [5]: 2270 nM | IC50 [6]: 2270 nM

COc1cc([C@@H]2c3cc4c(cc3C=C(/C=N/Nc3ccccc3)[C@H]2CO)OCO4)cc(OC)c1OC
IC50 [1]: 1020 nM | IC50 [2]: 2050 nM | IC50 [3]: 510 nM | IC50 [5]: 1020 nM | IC50 [6]: 1020 nM

CO/N=C/C1=Cc2cc3c(cc2[C@@H](c2cc(OC)c(OC)c(OC)c2)[C@@H]1C(=O)OC)OCO3
IC50 [1]: 220 nM | IC50 [2]: 220 nM | IC50 [3]: 220 nM | IC50 [5]: 220 nM | IC50 [6]: 220 nM

COC(=O)[C@@H]1C(C=O)=Cc2cc3c(cc2[C@H]1c1cc(OC)c(OC)c(OC)c1)OCO3 [PODOPHYLLIC ALDEHYDE]
IC50 [1]: 230 nM | IC50 [2]: 12 nM | IC50 [3]: 230 nM | Selectivity index [4]: 20 | IC50 [5]: 230 nM | IC50 [6]: 120 nM

COc1cc([C@@H]2c3cc4c(cc3C[C@H]3COC(=O)[C@@H]32)OCO4)cc(OC)c1OC [DESOXYPODOPHYLLOTOXIN]
IC50 [1]: 6 nM | IC50 [2]: 6 nM | IC50 [5]: 10 nM | IC50 [6]: < 6 nM

COC(=O)[C@@H]1C(/C=N/NCC(F)(F)F)=Cc2cc3c(cc2[C@H]1c1cc(OC)c(OC)c(OC)c1)OCO3
IC50 [1]: 480 nM | IC50 [2]: 48 nM | IC50 [3]: 480 nM | Selectivity index [4]: 10 | IC50 [5]: 480 nM | IC50 [6]: 190 nM

COc1cc([C@@H]2c3cc4c(cc3C=C(C=O)[C@H]2CO)OCO4)cc(OC)c1OC
IC50 [1]: 630 nM | IC50 [2]: 250 nM | IC50 [3]: 250 nM | IC50 [5]: 250 nM | IC50 [6]: 250 nM

COc1cc([C@@H]2c3cc4c(cc3[C@H](O)[C@H]3COC(=O)[C@H]23)OCO4)cc(OC)c1OC [PODOFILOX]
IC50 [1]: 29 nM | IC50 [2]: 29 nM | IC50 [5]: 12 nM | IC50 [6]: 12 nM

COC(=O)[C@H]1[C@H](c2cc(OC)c(OC)c(OC)c2)c2cc3c(cc2[C@H](O)[C@H]1CO)OCO3
IC50 [1]: 450 nM | IC50 [2]: 450 nM | IC50 [5]: 220 nM | IC50 [6]: 220 nM

COC(=O)[C@H]1[C@H](c2cc(OC)c(OC)c(OC)c2)c2cc3c(cc2C[C@H]1C=O)OCO3
IC50 [1]: 2340 nM | IC50 [2]: 2340 nM | IC50 [3]: 2340 nM | IC50 [5]: 2340 nM | IC50 [6]: 2340 nM

CO/N=C/[C@@H]1Cc2cc3c(cc2[C@@H](c2cc(OC)c(OC)c(OC)c2)[C@@H]1C(=O)OC)OCO3
IC50 [1]: > 21900 nM | IC50 [2]: > 21900 nM | IC50 [3]: > 21900 nM | IC50 [5]: 10900 nM | IC50 [6]: 21900 nM

COC(=O)[C@H]1[C@H](c2cc(OC)c(OC)c(OC)c2)c2cc3c(cc2C(=O)[C@H]1CO)OCO3
IC50 [1]: 5630 nM | IC50 [2]: 5630 nM | IC50 [3]: 5630 nM | IC50 [5]: 5630 nM | IC50 [6]: 5630 nM
